Measured values reported in patent publication US20080242681A1, “N-4-(6-(Hetero)Aryl-Pyrimidin-4-Ylaminophenyl)-Benzenesulfonamides as Kinase Inhibitors” (Altana Pharma AG, priority 2004, published 2008).
Where a name gives a salt, the structure may show the parent alone.

Experiments:
Lck = target: T1, Lck (Homo sapiens, UniProt P06239); experiment: Lck (p56Lck) assay (SPA); format: biochemical; settings: human recombinant Lck, read-out: IC50, inhibition of Lck
T1 construct: purchased Upstate (Dundee, UK)
Method: (§1) The compounds of formula 1 are tested for their activity on different protein kinases and PKC isoforms using a scintillation proximity assay (SPA, Amersham International plc). ^33P-labeled peptides are captured onto streptavidin coated yttrium silicate SPA beads. β-particles, emitted from the captured ^33P-labeled substrate in close proximity to the bead are able to excite the scintillant, resulting in the generation of quantifiable light. The assay is performed in a 96-well polystyrene microtiterplate (1450-514, Isoplates, Wallac, Turku, Finland). The reaction mixture (50 μl) contains 10 μl of the test compound together with 10 μl of the relevant kinase, diluted in the relevant dilution buffer, 5 μl of 10 μM phorbol myristate acetate (PMA) in H2O, 5 μl of 1.6 mM phosphatidylserine (Sigma-Aldrich Chemie GmbH, Stein-heim, Germany) in 20 mM Tris/HCL buffer pH 7.4, 5 μl of 0.3% BSA in H2O, 5 μl of 30 μM relevant substrate and 10 μl of 5 μM ATP and 0.1 μCi of ^33P-ATP (Amersham, Freiburg, Germany) in 200 mM Tris/HCL pH 7.5 and 200 mM MgCl2. […] Thereafter the MTP is counted in a Microbeta Jet (Wallac). […]
Human recombinant Lck was obtained from Upstate (Dundee, UK) and is used in a scintillation proximity assay described in Section A.1. […] Thereafter the MTP is counted in a Microbeta Jet (Wallac). […] IC50 values are calculated from the graph by sigmoidal curve fitting. […]

PKCβ1 = target: T2, PKCβ1 (Homo sapiens, UniProt P05771); experiment: Protein Kinase Cβ1 assay (SPA); format: biochemical; settings: human recombinant PKCβ1, SPA, biotinylated PKCα pseudosubstrate, 0.5 mM CaCl2; read-out: IC50, inhibition of PKC β1
T2 construct: purchased Panvera
Method: (§2) The compounds of formula 1 are tested for their activity on different protein kinases and PKC isoforms using a scintillation proximity assay (SPA, Amersham International plc). ^33P-labeled peptides are captured onto streptavidin coated yttrium silicate SPA beads. β-particles, emitted from the captured ^33P-labeled substrate in close proximity to the bead are able to excite the scintillant, resulting in the generation of quantifiable light. The assay is performed in a 96-well polystyrene microtiterplate (1450-514, Isoplates, Wallac, Turku, Finland). The reaction mixture (50 μl) contains 10 μl of the test compound together with 10 μl of the relevant kinase, diluted in the relevant dilution buffer, 5 μl of 10 μM phorbol myristate acetate (PMA) in H2O, 5 μl of 1.6 mM phosphatidylserine (Sigma-Aldrich Chemie GmbH, Stein-heim, Germany) in 20 mM Tris/HCL buffer pH 7.4, 5 μl of 0.3% BSA in H2O, 5 μl of 30 μM relevant substrate and 10 μl of 5 μM ATP and 0.1 μCi of ^33P-ATP (Amersham, Freiburg, Germany) in 200 mM Tris/HCL pH 7.5 and 200 mM MgCl2. Incubation is performed for 40 min at room temperature (RT) without shaking. Reaction is stopped by adding 150 μl of cold stop solution containing 10 mM ATP, 5 mM EGTA pH 7.5, 0.1% Triton X-100 and 0.2 mg streptavidin coated yttrium silicate SPA beads (Amersham, RPNQ 0012). The sealed plate is incubated for 60 min at RT. Thereafter the MTP is counted in a Microbeta Jet (Wallac). IC50 measurement is performed on a routine basis by incubation a serial dilution of inhibitor at concentrations ranging between 0.01 and 100 μM according to the method described above. Background values are the signals of the reaction mixture without addition of the relevant kinase and are subtracted from all values. 100% values are the signals of the reaction mixture without addition of inhibitors.
Dependent on the efficacy of the inhibitors In the various test systems, corresponding IC50 values are calculated from concentration-inhibition curves by nonlinear regression analysis using the program GraphPad Prism (GraphPad Software Inc., San Diego, Calif.).
Human recombinant PKCβ1 was obtained from Panvera and is used under the assay conditions as described above (Section A.1). The enzyme is diluted in PKC dilution buffer containing 1 mM Hepes pH 7.4, 0.5 mM DTT and 0.001% Triton X-100. The assay additionally contains 0.5 mM CaCl2. The kinase reaction is performed with the biotinylated PKCα pseudosubstrate solved in H2O. The examples 29, 45, 52, 128 and 139 inhibit PKC β1 in this assay with an IC50 between 2 and 40 μM.

responder T cells = experiment: Mixed lymphocyte reaction (MLR), T cell proliferation; format: cell-based; settings: [3H]thymidine incorporation after 48 h, read-out: IC50, inhibition of MLR-mediated T-cell proliferation
Method: For MLR cultures 4×10^5 responder T cells are incubated in duplicates with 2×10^5 mitomycin C-treated allogeneic stimulator T cells in a total volume of 200 μl RPMI 1640 medium supplemented with 10% FCS, 2 mM L-glutamine, 100 U/ml penicillin and 100 μg/ml streptomycin (Gibco Life Technologies) in 96 well tissue culture plates (655180, flat bottom, Greiner). Cells are maintained at 37° C. in a humidified atmosphere of 5% CO2. After 48 h of growth, cells are pulsed with 1 μCi [^3H]thymidine and incorporation of [^3H]thymidine is measured with a Topcount radioactive counter (Packard). To investigate the effect of a test compound on MLR-mediated T cell proliferation six three-fold dilution steps in duplicates per test compound are performed (final DMSO concentration 0.1%). Low control values are the proliferation of responder cells alone; high controls are from mixed lymphocyte cells without any test samples. Low controls are subtracted from all values. The inhibition obtained in the presence of a test compound is calculated as percent Inhibition of the high control. The concentration of test compounds resulting in 50% inhibition (IC50) is determined from the dose-response curves. The examples 91, 128, 133 and 137 inhibit MLR-mediated T-cell proliferation in this assay with an IC50<1 μM.

Rsk1 = target: T3, Rsk1 (Homo sapiens, UniProt Q15418); experiment: Rsk1 KinaseProfiler assay (Upstate); format: biochemical; settings: human recombinant Rsk, externally tested (IC50Profiler, Upstate), 10 μM ATP; read-out: IC50, inhibition of Rsk1
T3 construct: purchased Upstate ltd, Dundee, UK (external KinaseProfiler service)
Method: To investigate the effect of a test compound on p90 ribosomal S6 kinase (Rsk) family, the compounds are externally tested in KinaseProfiler assay (Upstate ltd, Dundee, UK) described in product guide brochure. In brief, in a final reaction volume of 25 μl, 5-10 mU of human recombinant Rsk are incubated with 8 mM MOPS pH 7.0, 0.2 mM EDTA, 30 μM KKKNRTLSVA, 10 mM MgAcetate and 10 μM [γ-33P-ATP]. The reaction is initiated by addition of the MgATP mix. After incubation for 40 minutes at RT, the reaction is stopped by the addition of 5 μl of a 3% phosphoric acid solution. 10 μl of the reaction is then spotted onto P30 filtermat and washed three times for 5 minutes in 75 mM phosphoric acid and once in methanol prior to drying and scintillation counting. The IC50 value is estimated by preparing a 10 point curve using a ½ log dilution series (IC50Profiler, Upstate). The examples 129, 431 and 173 inhibit Rsk1 in this assay with an IC50<1 μM.

PKCζ = target: T4, PKCζ (Homo sapiens, UniProt Q05513); experiment: Protein Kinase C ζ assay (SPA); format: biochemical; settings: human recombinant PKCζ, absence of PMA and phosphatidylserine, read-out: IC50, inhibition of PKC ζ
T4 construct: purchased Panvera
T4 sequence (Q05513 1-592): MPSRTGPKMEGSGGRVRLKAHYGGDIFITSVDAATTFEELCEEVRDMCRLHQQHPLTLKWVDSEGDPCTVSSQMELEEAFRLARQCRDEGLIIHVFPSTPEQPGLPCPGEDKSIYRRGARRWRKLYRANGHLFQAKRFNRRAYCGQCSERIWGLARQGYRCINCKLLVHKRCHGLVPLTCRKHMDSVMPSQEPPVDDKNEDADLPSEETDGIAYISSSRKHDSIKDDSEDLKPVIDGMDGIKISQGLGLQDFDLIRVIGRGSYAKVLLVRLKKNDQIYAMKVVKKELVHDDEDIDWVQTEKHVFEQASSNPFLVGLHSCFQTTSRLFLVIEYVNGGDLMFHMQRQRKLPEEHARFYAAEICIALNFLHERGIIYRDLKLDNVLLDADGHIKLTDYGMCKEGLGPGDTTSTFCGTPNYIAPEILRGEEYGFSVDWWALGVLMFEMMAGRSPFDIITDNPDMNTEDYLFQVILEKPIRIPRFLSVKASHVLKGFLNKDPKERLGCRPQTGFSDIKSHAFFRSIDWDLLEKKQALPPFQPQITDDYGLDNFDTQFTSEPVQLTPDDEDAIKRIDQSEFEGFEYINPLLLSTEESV
Method: as §1
(§3) Dependent on the efficacy of the inhibitors In the various test systems, corresponding IC50 values are calculated from concentration-inhibition curves by nonlinear regression analysis using the program GraphPad Prism (GraphPad Software Inc., San Diego, Calif.). […]

PKCι = target: T5, PKCι (Homo sapiens, UniProt P41743); experiment: Protein Kinase C ι assay (SPA); format: biochemical; settings: human recombinant PKCι from Sf21 insect cells, absence of PMA and phosphatidylserine, read-out: IC50, inhibition of PKC ι
T5 construct: made in house; host or cells: Sf21 insect cells
T5 sequence (P41743 1-596): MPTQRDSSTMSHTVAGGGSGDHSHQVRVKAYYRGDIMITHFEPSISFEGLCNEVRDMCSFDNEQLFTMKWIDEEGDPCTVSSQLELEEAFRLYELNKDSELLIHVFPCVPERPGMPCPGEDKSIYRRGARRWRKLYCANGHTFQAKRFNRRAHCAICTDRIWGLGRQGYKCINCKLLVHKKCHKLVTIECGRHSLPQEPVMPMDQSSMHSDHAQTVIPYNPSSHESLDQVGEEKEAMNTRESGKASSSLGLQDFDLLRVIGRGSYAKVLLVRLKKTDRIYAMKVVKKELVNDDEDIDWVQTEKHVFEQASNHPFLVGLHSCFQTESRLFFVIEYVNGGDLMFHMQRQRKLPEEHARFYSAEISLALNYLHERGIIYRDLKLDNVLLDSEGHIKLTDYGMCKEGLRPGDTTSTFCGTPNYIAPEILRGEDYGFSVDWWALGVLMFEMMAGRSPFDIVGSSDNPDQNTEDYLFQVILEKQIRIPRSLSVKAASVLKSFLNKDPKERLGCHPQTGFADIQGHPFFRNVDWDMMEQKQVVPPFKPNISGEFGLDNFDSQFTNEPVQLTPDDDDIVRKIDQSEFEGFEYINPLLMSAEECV
Method: as §2, §3

T1 sequence (P06239 whole entry): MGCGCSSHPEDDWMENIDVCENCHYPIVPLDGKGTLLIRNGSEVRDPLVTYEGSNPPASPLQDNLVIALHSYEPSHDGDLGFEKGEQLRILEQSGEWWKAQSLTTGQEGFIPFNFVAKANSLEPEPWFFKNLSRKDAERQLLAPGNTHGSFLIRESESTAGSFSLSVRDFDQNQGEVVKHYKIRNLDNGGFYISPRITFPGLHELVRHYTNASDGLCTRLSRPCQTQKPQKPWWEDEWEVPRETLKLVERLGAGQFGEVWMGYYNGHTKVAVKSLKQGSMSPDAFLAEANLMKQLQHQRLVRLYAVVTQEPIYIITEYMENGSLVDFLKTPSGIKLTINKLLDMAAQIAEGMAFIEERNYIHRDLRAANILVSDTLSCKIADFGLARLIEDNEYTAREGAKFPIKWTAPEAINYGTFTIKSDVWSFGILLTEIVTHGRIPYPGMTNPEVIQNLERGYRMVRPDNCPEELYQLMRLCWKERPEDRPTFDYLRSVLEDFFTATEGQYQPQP
T3 sequence (Q15418 whole entry): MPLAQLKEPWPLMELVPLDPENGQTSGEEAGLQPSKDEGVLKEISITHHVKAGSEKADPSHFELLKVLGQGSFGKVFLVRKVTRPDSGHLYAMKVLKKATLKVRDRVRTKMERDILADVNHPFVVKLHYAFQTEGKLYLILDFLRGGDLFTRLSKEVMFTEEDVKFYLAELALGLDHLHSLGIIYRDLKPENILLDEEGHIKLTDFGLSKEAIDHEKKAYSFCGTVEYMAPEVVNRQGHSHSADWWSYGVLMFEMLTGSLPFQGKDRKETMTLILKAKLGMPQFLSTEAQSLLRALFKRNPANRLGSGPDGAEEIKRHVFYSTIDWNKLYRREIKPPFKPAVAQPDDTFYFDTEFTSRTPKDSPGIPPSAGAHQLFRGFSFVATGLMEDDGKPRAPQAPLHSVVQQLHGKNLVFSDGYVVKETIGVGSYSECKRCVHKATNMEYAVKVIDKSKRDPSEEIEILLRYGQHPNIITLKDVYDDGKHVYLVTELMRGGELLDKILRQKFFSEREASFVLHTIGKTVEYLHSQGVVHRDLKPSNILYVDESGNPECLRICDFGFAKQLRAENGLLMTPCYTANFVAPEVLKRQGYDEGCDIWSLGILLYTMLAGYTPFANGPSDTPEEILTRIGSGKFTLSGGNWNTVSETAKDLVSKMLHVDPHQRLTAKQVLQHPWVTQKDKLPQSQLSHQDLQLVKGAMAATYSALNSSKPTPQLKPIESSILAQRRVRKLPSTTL
T2 sequence (P05771 whole entry): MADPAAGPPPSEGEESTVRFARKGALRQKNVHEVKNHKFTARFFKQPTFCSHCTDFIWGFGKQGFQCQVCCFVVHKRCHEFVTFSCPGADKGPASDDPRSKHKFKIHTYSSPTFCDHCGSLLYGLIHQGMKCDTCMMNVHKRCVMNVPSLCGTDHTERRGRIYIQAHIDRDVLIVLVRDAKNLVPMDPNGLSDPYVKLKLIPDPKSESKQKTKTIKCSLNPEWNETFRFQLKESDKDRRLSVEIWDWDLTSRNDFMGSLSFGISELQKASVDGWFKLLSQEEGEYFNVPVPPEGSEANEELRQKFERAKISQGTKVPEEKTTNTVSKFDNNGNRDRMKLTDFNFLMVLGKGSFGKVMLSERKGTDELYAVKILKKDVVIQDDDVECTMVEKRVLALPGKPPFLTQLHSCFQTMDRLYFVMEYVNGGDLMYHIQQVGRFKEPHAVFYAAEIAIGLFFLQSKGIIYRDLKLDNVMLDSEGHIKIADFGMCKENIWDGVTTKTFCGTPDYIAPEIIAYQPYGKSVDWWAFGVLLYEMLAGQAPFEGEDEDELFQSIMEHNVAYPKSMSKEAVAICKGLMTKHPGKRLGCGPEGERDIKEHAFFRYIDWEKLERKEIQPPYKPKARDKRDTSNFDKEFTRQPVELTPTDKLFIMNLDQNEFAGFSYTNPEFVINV

CN(C)CCCn1ccc2cc(-c3cc(Nc4ccc(NS(=O)(=O)c5c(F)cccc5F)cc4)ncn3)ccc21 [Example 128, N-(4-{6-[1-(3-Dimethylamino-propyl)-1H-indol-5-yl]-pyrimidin-4-ylamino}-phenyl)-2,6-difluoro-benzenesulfonamide]
IC50 (Lck): < 3 µM | IC50 (PKCβ1): 2 to 40 µM | IC50 (responder T cells): < 1 µM

CN(C)CCCn1ccc2cc(-c3cc(Nc4ccc(NS(=O)(=O)c5ccccc5F)cc4)ncn3)ccc21 [Example 129, N-(4-{6-[1-(3-Dimethylamino-propyl)-1H-indol-5-yl]-pyrimidin-4-ylamino}-phenyl)-2-fluorobenzenesulfonamide]
IC50 (Rsk1): < 1 µM

COc1ccc(S(=O)(=O)Nc2ccc(Nc3cc(-c4ccc5c(ccn5CCCN(C)C)c4)ncn3)cc2)cc1 [Example 131, N-(4-[6-[1-(3-Dimethylamino-propyl)-1H-indol-5-yl]pyrimidin-4-ylamino]phenyl)-4-methoxy-benzenesulfonamide]
IC50 (Lck): < 3 µM

O=S(=O)(Nc1ccc(Nc2cc(-c3ccc4c(ccn4CCCN4CCCC4)c3)ncn2)cc1)c1c(F)cccc1F [Example 143, 2,6-Difluoro-N-(4-{6-[1-(3-pyrrolidin-1-yl-propyl)-1H-indol-5-yl]-pyrimidin-4-ylamino}-phenyl)-benzenesulfonamide formic acid salt]
IC50 (PKCζ): 15 to 25 µM

CCN(CC)CCCn1cc(-c2cc(Nc3ccc(NS(=O)(=O)c4c(F)cccc4F)cc3)ncn2)c2ccccc21 [Example 173, N-(4-{6-[1-(3-Diethylamino-propyl)-1H-indol-3-yl]-pyrimidin-4-ylamino}-phenyl)-2,6-difluoro-benzenesulfonamide formic acid salt]
IC50 (PKCι): 7 to 34 µM | IC50 (Rsk1): < 1 µM

CCN(CC)CCCn1cc(-c2cc(Nc3ccc(NS(=O)(=O)c4ccc(F)cc4F)cc3)ncn2)c2ccccc21 [Example 175, N-(4-{6-[1-(3-Diethylamino-propyl)-1H-indol-3-yl]-pyrimidin-4-ylamino}-phenyl)-2,4-difluoro-benzenesulfonamide formic acid salt]
IC50 (PKCζ): 15 to 25 µM
